The values below come from PMC8216263 (Pharmaceutical Biology, 2021).

One data set concerns the target T1, OCT2 (Homo sapiens, UniProt O15244).
T1 construct: host or cells: S2 (second portion of proximal tubule) cells
T1 sequence (O15244 1-555): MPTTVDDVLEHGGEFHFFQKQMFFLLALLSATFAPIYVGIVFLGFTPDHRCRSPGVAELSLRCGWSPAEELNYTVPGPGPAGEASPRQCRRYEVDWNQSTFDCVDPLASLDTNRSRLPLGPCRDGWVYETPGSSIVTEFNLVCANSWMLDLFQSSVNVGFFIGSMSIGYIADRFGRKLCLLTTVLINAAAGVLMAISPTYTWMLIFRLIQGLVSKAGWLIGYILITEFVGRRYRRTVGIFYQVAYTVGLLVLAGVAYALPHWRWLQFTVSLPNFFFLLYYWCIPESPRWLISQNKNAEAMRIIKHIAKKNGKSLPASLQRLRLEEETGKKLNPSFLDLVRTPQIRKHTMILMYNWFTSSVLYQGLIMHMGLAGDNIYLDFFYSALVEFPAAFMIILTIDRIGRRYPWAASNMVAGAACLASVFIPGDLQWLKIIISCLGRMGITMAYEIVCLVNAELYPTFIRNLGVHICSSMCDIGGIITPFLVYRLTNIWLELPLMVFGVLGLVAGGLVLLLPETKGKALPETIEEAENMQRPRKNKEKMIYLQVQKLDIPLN
The data set can be described thus: Inhibition of OCT2-mediated 14C-TEA uptake in S2-OCT2 cells. The class given is cell-based. As to conditions: GA at 150 and 500 μg/L; PCA 100 to 1000 μg/L; p < 0.05 vs control. How it is done: Cells were cultured in DMEM supplemented with 10% FBS, 100 units/mL penicillin and 100 units/mL streptomycin. […] Cell culture flasks, 24-well cell culture plates, and transwell polycarbonate inserts (12 mm diameter, 0.4 μm pore size) were purchased from Corning Co-star Corp. (Bedford, MA).
The MDCK-OAT1, S2-OAT3, S2-OCT2 and HEK293-OATP1B1 cell lines were utilized in this study. […] Briefly, S2-OAT3, S2-OCT2 and S2-mock cells were trypsinized and uniformly suspended in the culture medium’s designated volume to provide a density of 2.0 × 10^5 cells/mL. A 1.0-mL aliquot of the cell suspension was added into each well of 24-well insert plates. HEK293-OATP1B1, MDCK-OAT1 and their mock cells were seeded in 24-well plates at a density of 1.5 × 10^5 cells/well. […] Three washes terminated the experiment with ice-cold DPBS buffer after removing the incubation buffer. Cells were lysed with 400 μL of […] sodium hydroxide solution. The cell lysate and 3.0 mL of aquasol-2 scintillation fluid were put into a scintillation flask. […] The final concentration of DMSO in the assay was less than 0.1%. All experiments were performed in triplicate.

In another data set the target is T2, OATP1B1 (Homo sapiens, UniProt Q9Y6L6).
T2 sequence (Q9Y6L6 1-691): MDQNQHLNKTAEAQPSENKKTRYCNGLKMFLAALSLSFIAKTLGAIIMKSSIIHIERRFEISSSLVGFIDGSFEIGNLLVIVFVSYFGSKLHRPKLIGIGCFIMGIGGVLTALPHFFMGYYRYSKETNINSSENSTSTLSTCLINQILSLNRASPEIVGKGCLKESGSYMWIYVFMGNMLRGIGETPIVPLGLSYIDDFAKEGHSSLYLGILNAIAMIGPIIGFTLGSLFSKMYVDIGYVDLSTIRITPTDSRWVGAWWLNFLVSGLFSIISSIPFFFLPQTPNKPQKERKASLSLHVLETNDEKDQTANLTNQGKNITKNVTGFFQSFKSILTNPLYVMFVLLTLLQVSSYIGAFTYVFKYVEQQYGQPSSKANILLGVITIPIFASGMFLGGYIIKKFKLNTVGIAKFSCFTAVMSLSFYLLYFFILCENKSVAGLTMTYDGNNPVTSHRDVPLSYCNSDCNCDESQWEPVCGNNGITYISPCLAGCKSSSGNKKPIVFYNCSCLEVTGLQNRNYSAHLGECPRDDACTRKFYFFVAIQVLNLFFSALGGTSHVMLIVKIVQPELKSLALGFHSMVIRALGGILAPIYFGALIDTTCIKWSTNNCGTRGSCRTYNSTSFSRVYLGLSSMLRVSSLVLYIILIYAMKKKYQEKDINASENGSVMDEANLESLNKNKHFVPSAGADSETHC
The data set can be described thus: Inhibition of OATP1B1-mediated 3H-ES uptake in HEK293-OATP1B1 cells. The data set is classed as cell-based. As to conditions: GA 50–5000 μg/L, PCA 10–1000 μg/L. From the text: The human multidrug resistance protein (MDR)1-transfected Madin–Darby Canine Kidney (MDCK) cells, human breast cancer resistance protein (BCRP)-transfected MDCK cells, human organic anion transporter (OAT)1-transfected MDCK cells, OAT3-transfected second portion of proximal tubule (S2) cells, human organic cation transporter (OCT)2-transfected S2 cells, human organic anion transporting polypeptide (OATP)1B1-transfected human embryonic kidney 293 (HEK293) cells and their MOCK cells were kindly provided by Japan Fuji Biomedical Co., Ltd. (Osaka, Japan). Cells were cultured in DMEM supplemented with 10% FBS, 100 units/mL penicillin and 100 […]. All cells were incubated in a humidified atmosphere of 95% air and 5% CO2 at 37 °C. A solution of 0.25% trypsin-EDTA was used to detach the cells from flasks. Cell culture flasks, 24-well cell culture plates, and transwell polycarbonate inserts (12 mm diameter, 0.4 μm pore size) were purchased from Corning Co-star Corp. (Bedford, MA).
Concentration-dependent inhibitions were conducted to study GA and PCA’s inhibitory effects on uptake transporters OAT1, OAT3, OCT2 and OATP1B1. The MDCK-OAT1, S2-OAT3, S2-OCT2 and HEK293-OATP1B1 cell lines were utilized in this study. […] The radioactive intensity was measured using a Tri-Carb 2910TR scintillator (PerkinElmer, Waltham, MA). […]

On to `O=C(O)c1ccc(O)c(O)c1` [PCA, protocatechuic acid], for which the “effect on OCT2-mediated uptake of 14C-TEA” value on OCT2 is “statistical decline”. Further, the “inhibitory effect on OATP1B1-mediated uptake of 3H-ES” value against OATP1B1 is “no statistical differences”.
